# Test results from EP1073452B1, “USE OF […] TREATING CYTOKINE MEDIATED HEPATIC INJURY” (University of Kentucky Research Foundation, priority 1998, dated 2003).
# Test system: Male BALB/c HSD mice
# Test: Survival of mice rendered hepatotoxic by LPS/GAL treatment (model for septic shock / hepatic failure)
# Assay type: in vivo
# Protocol: Hepatic failure was induced in mice by intraperitoneal injections of a mixture of lipopolysaccharide (LPS) (100 µg/kg) and D-galactosamine (GAL) (700 mg/kg) to form LPS/GAL. LPS is a bacterial endotoxin that is a major stimulus for production of many cytokines, particularly tumor necrosis factor (TNF), thought to be involved in liver injury. GAL is an amino sugar that sensitizes hepatocytes by depleting the base uridine and thus preventing hepatic transcription, and sensitizes animals to normally innocuous amounts of endotoxin or TNF. The LPS/GAL treatment induces fulminate hepatic and multiorgan failure, and serves as a model for septic shock. The major effects of LPS/GAL are elicited by the inflammatory cytokine TNF-α. Hepatocytes sensitized to TNF-α then undergo apoptosis or programmed cell death in response to inflammatory processes.
# Mice were treated with deltorphin and were subsequently rendered hepatotoxic by LPS/GAL treatment. An emulsion of deltorphin I SEQ ID NO:1 (Tyr-D-Ala-Phe-Asp-Val-Val-Gly-NH2) was prepared at a concentration of 80 µg/200 µl in sterile phosphate buffered saline (PBS). An emulsion of DADLE (Tyr-D-Ala-Gly-Phe-D-Leu-enkephalin) was also prepared at a concentration of 80 µg/200 µl in sterile PBS. Male BALB/c HSD mice were treated by intraperitoneal injections according to the following protocol. Control mice (n = 7) received only LPS/GAL (280 µl) at 6.5 h. Deltorphin I SEQ ID NO:1 treated mice (n = 15) received injections of 4 mg/kg deltorphin I SEQ ID NO:1 at 0 h, 2 h, 4 h, 6 h and 7.5 h and received an LPS/GAL injection at 6.5 h. DADLE treated mice (n = 15) received 4 mg/kg DADLE at 0 h, 2 h, 4 h, 6 h and 7.5 h and received an LPS/GAL injection at 6.5 h.
# Both control and treated mice were monitored at 15 h, 20 h, 40 h and 65 h after the last injection. TABLE
# [1] = n = 15, 4 mg/kg intraperitoneal at 0 h, 2 h, 4 h, 6 h and 7.5 h, LPS/GAL at 6.5 h, 15 h after the last injection
# [2] = n = 15, 4 mg/kg intraperitoneal at 0 h, 2 h, 4 h, 6 h and 7.5 h, LPS/GAL at 6.5 h, 20 h after the last injection
# [3] = n = 15, 4 mg/kg intraperitoneal at 0 h, 2 h, 4 h, 6 h and 7.5 h, LPS/GAL at 6.5 h, 40 h after the last injection
# [4] = n = 15, 4 mg/kg intraperitoneal at 0 h, 2 h, 4 h, 6 h and 7.5 h, LPS/GAL at 6.5 h, 65 h after the last injection
substance,measurement,setting,value
Tyr-D-Ala-Gly-Phe-D-Leu-enkephalin [DADLE],survival time,"mice made septic by LPS/GAL treatment, compared to mice receiving LPS/GAL only",not as striking
same,SURVIVAL 15 Hours (number of mice),[1],3
same,SURVIVAL 15 Hours (percent),[1],20%
same,SURVIVAL 20 Hours (number of mice),[2],3
same,SURVIVAL 20 Hours (percent),[2],20%
same,SURVIVAL 40 Hours (number of mice),[3],3
same,SURVIVAL 40 Hours (percent),[3],20%
same,SURVIVAL 65 Hours (number of mice),[4],3
same,SURVIVAL 65 Hours (percent),[4],20%
